Data on 4 compounds can be found in patent US5262440A, “Antitumor compositions and methods of treatment” (Eli Lilly and Company, priority 1991, dated 1993).

For series [1] the following is noted: metabolite of sulofenur; cited from earlier work.
For series [2] the following is noted: metabolite of sulofenur; cited from earlier work. This is another data set of the same source.
For series [3] the following is noted: all species (mice, rats, dogs, monkeys); cited from earlier work.
The conditions of series [4]: phase I clinical studies; cited from earlier work.
The subject of series [5] is 6C3HED lymphosarcoma (Gardner lymphosarcoma, GLS). As to the kind of experiment: Percent inhibition of tumor growth in C3H mice bearing 6C3HED lymphosarcoma (Gardner lymphosarcoma, GLS), oral. The class given is in vivo. Particulars: oral gavage, daily for 8 days. The protocol: (§1) The compounds were tested in C3H mice bearing a 6C3HED lymphosarcoma, also known as the Gardner lymphosarcoma (GLS). The 6C3HED lymphosarcoma was obtained from the Division of Cancer Treatment, National Cancer Institute, Tumor Bank, maintained at E. G. and G. Mason Research (Worcester, Mass.). First passage tumor was stored in liquid nitrogen using standard techniques. The transplanted tumor was reestablished from the Tumor Bank every six months or as needed. The tumor was maintained by serial passage twice weekly in C3H mice.
In the procedures utilized here, the tumor was removed from passage animals and minced into 1- to 3-mm cubic fragments using sterile techniques. Tumor pieces were checked for sterility using both Antibiotic Medium 1 and Brain Heart Infusion (Difco, Detroit, Mich.). Recipient mice were shaved and the tumor pieces were implanted subcutaneously in an axillary site by trochar.
(§2) Drug therapy on the appropriate schedule was initiated on the day after tumor implantation. The compound being tested was mixed with 2.5% Emulphor EL620 from GAF Corporation (1:40 dilution in 0.9% saline). The total dosage volume for each administration was 2.5 mL. All animals were weighed at the beginning and end of administration of the subject compounds. Food and water were provided ad libitum.
(§3) Each control group and each dosage level of the treated groups consisted of 10 mice selected at random from the pool of implanted animals. The compounds were administered orally by gavage with the use of an 18-gauge needle. Compounds were dosed daily for 8 days.
The tumor was measured the day after treatment ended with two dimensional measurements (width and length) of the tumor taken using Vernier calipers. Tumor weights were calculated from these measurements using the following formula:
Tumor weight (mg)=[tumor length (mm)×[tumor width (mm)]^2 ].div.2
At least one control group of an equal number of mice was treated with the same volume of 2.5% Emulphor only. The percent inhibition is determined by subtracting the ratio of the mean tumor size of the test group relative to the control group from one and multiplying the result by 100.
(§4) The results of several experiments in mice bearing a 6C3HED lymphosarcoma when the instant compounds were administered orally are provided in Table I. In the Table, column 1 gives the dose level of the compound mixture of Example 1, column 2 provides the percent inhibition of tumor growth, and column 3 gives the number of mice which died relative to the total number of animals in the group.

For series [6], the system named is C3H mice bearing a 6C3HED lymphosarcoma. As to the kind of experiment: Toxicity (mice which died relative to total number in group) in C3H mice bearing 6C3HED lymphosarcoma. The class given is in vivo. The conditions noted are these: oral gavage, daily for 8 days. As for the experimental part:
as §1, §2, §3, §4

As for `O=C(Nc1ccc(Cl)cc1)NS(=O)(=O)c1ccc2c(c1)CCC2O` (stereo not shown) [N-(1-hydroxyindan-5-sulfonyl)-N'-(4-chlorophenyl)urea], in series [1], the “contribution of metabolite to adverse effects” value is “contribute to the adverse effects” and the “therapeutic activity of metabolite” value is “therapeutically inactive”. In addition, the “retention in humans compared with other species tested” value in series [2] is listed as “retained longer in humans than in the other species tested”.
For the compound `O=C(Nc1ccc(Cl)cc1)NS(=O)(=O)c1ccc2c(c1)CCC2=O` [N-(1-ketoindan-5-sulfonyl)-N'-(4-chlorophenyl)urea], in series [1], the “contribution of metabolite to adverse effects” value is listed as “contribute to the adverse effects” and the “therapeutic activity of metabolite” value was “therapeutically inactive”. The “retention in humans compared with other species tested” value in series [2] is “retained longer in humans than in the other species tested”.
As for `O=C(Nc1ccc(Cl)cc1)NS(=O)(=O)c1ccc2c(c1)CCC2` [sulofenur, N-(indan-5-sulfonyl)-N'-(4-chlorophenyl)urea], in series [3], the adsorption entry is listed as “good adsorption” and the “metabolism (extent)” value was “extensive metabolism”. In addition, the “major metabolites in patients” value in series [4] is 1-hydroxy- and 1-ketoindansulfonylureas.
Take “N-[[(4-chlorophenyl)amino]carbonyl]-indene-5-sulfonamide (A) and N-[[(4-chlorophenyl)amino]carbonyl]-indene-6-sulfonamide (B) [Example 1]”: the “Percent Inhibition (of tumor growth)” value turned out to be 16% in series [5] (dosage 25.0 (unit not given)); 36% in series [5] (dosage 50.0 (unit not given)); 77% in series [5] (dosage 100.0 (unit not given)); 100% in series [5] (dosage 150.0 (unit not given)); 100% in series [5] (dosage 300.0 (unit not given)). In addition, the “Toxic/Total (mice which died relative to total number of animals in the group)” value in series [6] (dosage 25.0 (unit not given)), in series [6] (dosage 50.0 (unit not given)), in series [6] (dosage 100.0 (unit not given)), in series [6] (dosage 150.0 (unit not given)) and in series [6] (dosage 300.0 (unit not given)) was 0/10 each time.
